In patent US12599672B2, “KRAS proteolysis targeting chimeras” (PAQ Therapeutics Inc., priority 2023, dated 2026):

Experiments:
[1] = target: T1, KRAS G12D (Homo sapiens, UniProt P01116, G12D); assay: KRAS G12D HiBit assay; type: cell-based; settings: AsPc-1-KRAS (G12D)-HiBit-KI cell, compound treatment for 24 hours; for DC50: absolute DC50
T1 construct: AsPc-1-KRAS (G12D)-HiBit-KI cell (Pharmaron); host or cells: AsPc-1-KRAS (G12D)-HiBit-KI cells (HiBiT knock-in at the endogenous KRAS locus)
Summary of the method: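 HiBiT luminescence, detected by adding lytic buffer, substrate and LgBiT protein, served as the KRAS G12D read-out. Compounds, serially diluted 3-fold over 10 points from 0.3 mM DMSO stock, were on cells for 24 h; percent inhibition normalized to cells given 0.1% DMSO only.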

[2] = target: T2, KRAS G12V (Homo sapiens, UniProt P01116, G12V); assay: KRAS G12V HiBit assay; type: cell-based; settings: SW620-KRAS (G12V)-HiBit-KI cells, compound treatment for 24 hours, class symbols
T2 construct: SW620-KRAS (G12V)-HiBit-KI cell (Pharmaron); host or cells: SW620-KRAS (G12V)-HiBit-KI cells (HiBiT knock-in at the endogenous KRAS locus)
Method: Day 1. […] Rinsed cultivated cells in T-75 flasks with 5 mL PBS (Solarbio, P1020-500). […] Inactivated trypsin by adding excessive serum containing medium. Harvested the cells from flask into cell culture medium and counted the cell number.
Day 2. Test compounds were dissolved at 0.3 mM in DMSO (Solarbio, D8371) as stock solution. […] Performed 3-fold, 10-points dilution via transferring 15 μL compound into 30 μL DMSO by using TECAN liquid handler (TECAN, Freedom EVO200). […] After compound treatment for 24 hours, the plate was removed from incubators and equilibrated at room temperature for 15 minutes. Prepare the HiBit reagent (Promega, N3040) by mixing 10 mL of Nano-Glo®-HiBiT Lytic Buffer with 200 μL of Nano-Glo®-HiBiT Lytic Substrate and 100 μL of LgBiT Protein. Added 20 μL of HiBit reagent into each well of the cell plate and spun the plates at room temperature at 1,000 RPM for 1 minute.
The degradation activity was calculated using the following formula:
[formula] where HC (high control) is obtained from cells treated with 0.1% DMSO only.

T2 sequence (P01116 1-188 isoform P01116-2 G12V): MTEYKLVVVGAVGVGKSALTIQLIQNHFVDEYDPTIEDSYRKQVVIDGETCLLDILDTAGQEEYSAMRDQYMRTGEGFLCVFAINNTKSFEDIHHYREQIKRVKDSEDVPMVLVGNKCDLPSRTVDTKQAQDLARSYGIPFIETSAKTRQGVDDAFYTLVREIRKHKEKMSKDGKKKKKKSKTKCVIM
T1 sequence (P01116 1-188 isoform P01116-2 G12D): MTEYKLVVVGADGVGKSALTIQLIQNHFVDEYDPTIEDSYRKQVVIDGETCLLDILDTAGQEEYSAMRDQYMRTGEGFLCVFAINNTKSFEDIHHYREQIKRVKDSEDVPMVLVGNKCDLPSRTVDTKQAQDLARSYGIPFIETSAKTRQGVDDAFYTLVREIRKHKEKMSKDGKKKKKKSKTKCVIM

| Compound | DC50 ([1]; class symbols) | Dmax ([1]; class symbols) | DC50 [2] | DC50 ([1]; numeric bounds given in place of class symbols) |
| --- | --- | --- | --- | --- |
| CCc1c(F)ccc2cccc(-c3ncc4c(N5CCC[C@@](C)(O)C5)nc(OC[C@@]56CCCN5[C@H](COC(=O)NCCOCCOCCOCCOc5ccc7c(c5)n(C)c(=O)n7C5CCC(=O)NC5=O)CC6)nc4c3F)c12 (stereo partly drawn) [Compound 105, ((3S,7aS)-7a-(((7-(8-ethyl-7-fluoronaphthalen-1-yl)-8-fluoro-4-((R)-3-hydroxy-3-methylpiperidin-1-yl)pyrido[4,3-d]pyrimidin-2-yl)oxy)methyl)hexahydro-1H-pyrrolizin-3-yl)methyl (2-(2-(2-(2-((1-(2,6-dioxopiperidin-3-yl)-3-methyl-2-oxo-2,3-dihydro-1H-benzo[d]imidazol-5-yl)oxy)ethoxy)ethoxy)ethoxy)ethyl) carbamate] | > 0.3 µM | 15 to 50% | > 0.1 µM | – |
| CCc1c(F)ccc2cccc(-c3ncc4c(N5CCC[C@@](C)(O)C5)nc(OC[C@@]56CCCN5[C@H](COC(=O)NCCOc5ccc7c(c5)n(C)c(=O)n7C5CCC(=O)NC5=O)CC6)nc4c3F)c12 (stereo partly drawn) [Compound 111, ((3S,7aS)-7a-(((7-(8-ethyl-7-fluoronaphthalen-1-yl)-8-fluoro-4-((R)-3-hydroxy-3-methylpiperidin-1-yl)pyrido[4,3-d]pyrimidin-2-yl)oxy)methyl)hexahydro-1H-pyrrolizin-3-yl)methyl (2-((1-(2,6-dioxopiperidin-3-yl)-3-methyl-2-oxo-2,3-dihydro-1H-benzo[d]imidazol-5-yl)oxy)ethyl) carbamate] | > 0.3 µM | – | > 0.1 µM | – |
| C#Cc1c(F)ccc2cccc(-c3ncc4c(N5CCC[C@@](C)(O)C5)nc(OC[C@@]56CCCN5[C@H](COC(=O)N5CCC(N7CCC(c8ccc9c(c8)n(C)c(=O)n9C8CCC(=O)NC8=O)CC7)CC5)CC6)nc4c3F)c12 (stereo partly drawn) [Compound 128, ((3S,7aS)-7a-(((7-(8-Ethynyl-7-fluoronaphthalen-1-yl)-8-fluoro-4-((R)-3-hydroxy-3-methylpiperidin-1-yl)pyrido[4,3-d]pyrimidin-2-yl)oxy)methyl)hexahydro-1H-pyrrolizin-3-yl)methyl 4-(1-(2,6-dioxopiperidin-3-yl)-3-methyl-2-oxo-2,3-dihydro-1H-benzo[d]imidazol-5-yl)-[1,4′-bipiperidine]-1′-carboxylate] | > 0.3 µM | – | > 0.1 µM | – |
| C#Cc1c(F)ccc2cccc(-c3ncc4c(N5CCC[C@@](C)(O)C5)nc(OC[C@@]56CCCN5[C@H](COC(=O)N5CC(OCC7CCN(c8ccc9c(c8)n(C)c(=O)n9C8CCC(=O)NC8=O)CC7)C5)CC6)nc4c3F)c12 (stereo partly drawn) [Compound 130, ((3S,7aS)-7a-(((7-(8-Ethynyl-7-fluoronaphthalen-1-yl)-8-fluoro-4-((R)-3-hydroxy-3-methylpiperidin-1-yl)pyrido[4,3-d]pyrimidin-2-yl)oxy)methyl)hexahydro-1H-pyrrolizin-3-yl)methyl 3-((1-(1-(2,6-dioxopiperidin-3-yl)-3-methyl-2-oxo-2,3-dihydro-1H-benzo[d]imidazol-5-yl)piperidin-4-yl)methoxy) azetidine-1-carboxylate] | > 0.3 µM | – | > 0.1 µM | – |
| C#Cc1c(F)ccc2cc(O)cc(-c3ncc4c(N5CCC[C@@](C)(O)C5)nc(OC[C@@]56CCCN5[C@H](COC(=O)N5CCC(CN7CCC(c8cccc9c8n(C)c(=O)n9C8CCC(=O)NC8=O)CC7)CC5)CC6)nc4c3F)c12 (stereo partly drawn) [Compound 133] | < 0.1 µM | – | 0.01 to 0.1 µM | – |
| C#Cc1c(F)ccc2cccc(-c3ncc4c(N5CCC[C@@](C)(O)C5)nc(OC[C@@]56CCCN5[C@@H](COC(=O)N5CCC(CN7CCC(c8ccc9c(c8)n(C)c(=O)n9C8CCC(=O)NC8=O)CC7)CC5)CC6)nc4c3F)c12 (stereo partly drawn) [Compound 138] | – | – | > 0.1 µM | > 0.1 µM |
| C#Cc1cccc2cc(O)cc(-c3ncc4c(N5CCC[C@@](C)(O)C5)nc(OC[C@@]56CCCN5[C@H](COC(=O)N5CCC(CN7CCC(c8ccc9c(c8)n(C)c(=O)n9C8CCC(=O)NC8=O)CC7)CC5)CC6)nc4c3F)c12 (stereo partly drawn) [Compound 144] | < 0.1 µM | – | < 0.01 µM | – |

More lines, now with the values ahead:

| DC50 ([1]; class symbols) | Dmax ([1]; class symbols) | DC50 [2] | DC50 ([1]; numeric bounds given in place of class symbols) | Compound |
| --- | --- | --- | --- | --- |
| > 0.3 µM | 15 to 50% | > 0.1 µM | – | CCc1c(F)ccc2cccc(-c3ncc4c(N5CCC[C@@](C)(O)C5)nc(OC[C@@]56CCCN5[C@H](COC(=O)NCCOCCOCCOc5ccc7c(c5)n(C)c(=O)n7C5CCC(=O)NC5=O)CC6)nc4c3F)c12 (stereo partly drawn) [Compound 104, ((3S,7aS)-7a-(((7-(8-ethyl-7-fluoronaphthalen-1-yl)-8-fluoro-4-((R)-3-hydroxy-3-methylpiperidin-1-yl)pyrido[4,3-d]pyrimidin-2-yl)oxy)methyl)hexahydro-1H-pyrrolizin-3-yl)methyl (2-(2-(2-((1-(2,6-dioxopiperidin-3-yl)-3-methyl-2-oxo-2,3-dihydro-1H-benzo[d]imidazol-5-yl)oxy)ethoxy)ethoxy)ethyl) carbamate] |
| > 0.3 µM | < 15% | > 0.1 µM | – | C#Cc1c(F)ccc2cccc(-c3ncc4c(N5CCC[C@@](C)(O)C5)nc(OC[C@@]56CCCN5[C@H](COC(=O)NCCOc5ccc7c(c5)n(C)c(=O)n7C5CCC(=O)NC5=O)CC6)nc4c3F)c12 (stereo partly drawn) [Compound 106, ((3S,7aS)-7a-(((7-(8-ethynyl-7-fluoronaphthalen-1-yl)-8-fluoro-4-((R)-3-hydroxy-3-methylpiperidin-1-yl)pyrido[4,3-d]pyrimidin-2-yl)oxy)methyl)hexahydro-1H-pyrrolizin-3-yl)methyl (2-((1-(2,6-dioxopiperidin-3-yl)-3-methyl-2-oxo-2,3-dihydro-1H-benzo[d]imidazol-5-yl)oxy)ethyl) carbamate] |
| > 0.3 µM | – | > 0.1 µM | – | C#Cc1c(F)ccc2cccc(-c3ncc4c(N5CCCC(C#N)CC5)nc(OC[C@@]56CCCN5[C@H](COC(=O)NCCOc5ccc7c(c5)n(C)c(=O)n7C5CCC(=O)NC5=O)CC6)nc4c3F)c12 (stereo partly drawn) [Compound 116, ((3S,7aS)-7a-(((4-(4-cyanoazepan-1-yl)-7-(8-ethynyl-7-fluoronaphthalen-1-yl)-8-fluoropyrido[4,3-d]pyrimidin-2-yl)oxy)methyl)hexahydro-1H-pyrrolizin-3-yl)methyl (2-((1-(2,6-dioxopiperidin-3-yl)-3-methyl-2-oxo-2,3-dihydro-1H-benzo[d]imidazol-5-yl)oxy)ethyl) carbamate] |
| > 0.3 µM | – | > 0.1 µM | – | C#Cc1c(F)ccc2cccc(-c3ncc4c(N5CCCC(C#N)CC5)nc(OC[C@@]56CCCN5[C@H](COC(=O)NCCOCCOc5ccc7c(c5)n(C)c(=O)n7C5CCC(=O)NC5=O)CC6)nc4c3F)c12 (stereo partly drawn) [Compound 117, ((3S,7aS)-7a-(((4-(4-Cyanoazepan-1-yl)-7-(8-ethynyl-7-fluoronaphthalen-1-yl)-8-fluoropyrido[4,3-d]pyrimidin-2-yl)oxy)methyl)hexahydro-1H-pyrrolizin-3-yl)methyl (2-(2-((1-(2,6-dioxopiperidin-3-yl)-3-methyl-2-oxo-2,3-dihydro-1H-benzo[d]imidazol-5-yl)oxy)ethoxy)ethyl) carbamate] |
| < 0.1 µM | – | 0.01 to 0.1 µM | – | C#Cc1c(F)ccc2cc(O)cc(-c3ncc4c(N5CCC[C@@](C)(O)C5)nc(OC[C@@]56CCCN5[C@H](COC(=O)N5CCC(OCCC#Cc7cccc8c7n(C)c(=O)n8C7CCC(=O)NC7=O)CC5)CC6)nc4c3F)c12 (stereo partly drawn) [Compound 127, ((3S,7aS)-7a-(((7-(8-Ethynyl-7-fluoro-3-hydroxynaphthalen-1-yl)-8-fluoro-4-((R)-3-hydroxy-3-methylpiperidin-1-yl)pyrido[4,3-d]pyrimidin-2-yl)oxy)methyl)hexahydro-1H-pyrrolizin-3-yl)methyl 4-((4-(1-(2,6-dioxopiperidin-3-yl)-3-methyl-2-oxo-2,3-dihydro-1H-benzo[d]imidazol-4-yl)but-3-yn-1-yl)oxy)piperidine-1-carboxylate] |
| > 0.3 µM | – | > 0.1 µM | – | C#Cc1c(F)ccc2cc(O)cc(-c3ncc4c(N5CCC[C@@](C)(O)C5)nc(OC[C@@]56CCCN5[C@H](COC(=O)N5CCC(N7CCC(c8ccc9c(c8)n(C)c(=O)n9C8CCC(=O)NC8=O)CC7)CC5)CC6)nc4c3F)c12 (stereo partly drawn) [Compound 129] |
| > 0.3 µM | – | > 0.1 µM | – | C#Cc1c(F)ccc2cccc(-c3ncc4c(N5CCC[C@@](C)(O)C5)nc(OC[C@]56CCCN5[C@@H](COC(=O)N5CCC(CN7CCC(c8ccc9c(c8)n(C)c(=O)n9C8CCC(=O)NC8=O)CC7)CC5)CC6)nc4c3F)c12 (stereo partly drawn) [Compound 131] |
| > 0.3 µM | – | > 0.1 µM | – | C#Cc1c(F)ccc2cc(O)cc(-c3ncc4c(N5CCC[C@@](C)(O)C5)nc(OC[C@@]56CCCN5[C@H](COC(=O)N5CCC(CN7CCC(c8ccc9c(c8)n(C8CCC(=O)NC8=O)c(=O)n9C)CC7)CC5)CC6)nc4c3F)c12 (stereo partly drawn) [Compound 135] |
